Patent publication US10077241B2 (Janssen Pharmaceutica NV, priority 2014, dated 2018)
pEC50: −log10 of the molar value. Where a name gives a salt, the structure may show the parent alone.

Columns and labels:
[1] = biological target: T1, TGR5 (NCI-H716 cell line) (Homo sapiens, UniProt Q8TDU6); assay: NCI-H716 cAMP Agonist EC50 Determination
T1 sequence (Q8TDU6 1-330): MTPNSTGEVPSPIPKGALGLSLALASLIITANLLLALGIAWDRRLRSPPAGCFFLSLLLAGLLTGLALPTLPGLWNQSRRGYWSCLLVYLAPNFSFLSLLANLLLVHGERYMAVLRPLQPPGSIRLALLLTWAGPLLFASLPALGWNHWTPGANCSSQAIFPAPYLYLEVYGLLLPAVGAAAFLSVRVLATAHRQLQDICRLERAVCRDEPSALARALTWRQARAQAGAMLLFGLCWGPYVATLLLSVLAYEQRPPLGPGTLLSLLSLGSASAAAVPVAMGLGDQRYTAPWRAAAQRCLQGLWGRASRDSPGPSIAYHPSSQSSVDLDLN
Protocol: Cells were cultured in suspension using RPM containing: 10% HI FBS, and 1× Penn/Strep and were cryostored (1E7 cells/vial in 5% DMSO).
A Normalized signal (NS) is generated by the Envision for each well ((Read 1/Read 2)×10,000).
The data from the Envision were imported to an Excel worksheet. nM cAMP is calculated for each well from the cAMP standard curves located on each plate by first calculating the slope and deriving the intercept (b).
[formula] [formula] [formula] EC50 values were determined from a 4-point fit (Hill equation) of a single 11-point compound dosing.

[2] = biological target: T2, TGR5 (STC1 cell line) (Mus musculus, UniProt Q80SS6); assay: STC1 cAMP Agonist EC50 Determination
T2 sequence (Q80SS6 1-329): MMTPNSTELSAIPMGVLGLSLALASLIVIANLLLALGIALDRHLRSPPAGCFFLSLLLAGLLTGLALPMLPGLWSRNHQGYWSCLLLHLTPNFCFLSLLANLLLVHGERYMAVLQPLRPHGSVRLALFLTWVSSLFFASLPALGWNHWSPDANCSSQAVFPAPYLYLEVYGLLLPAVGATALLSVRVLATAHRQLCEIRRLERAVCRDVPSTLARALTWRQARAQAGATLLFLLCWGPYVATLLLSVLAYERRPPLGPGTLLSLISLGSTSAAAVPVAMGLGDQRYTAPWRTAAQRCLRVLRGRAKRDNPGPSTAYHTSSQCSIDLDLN
Protocol: Cell stocks were maintained and grown in a sub-confluent state using standard cell culture procedures. The day before the experiment, the cells were harvested with non-enzymatic cell dissociation buffer and resuspended in complete growth media at 4E5 c/ml. […] The seeded plates were incubated overnight at 37° C.
On the day of the experiment, Assay Buffer containing: HBSS with Ca^2+and Mg^2+; 5 μM HEPES; 0.1% BSA; and, 0.5 μM IBMX was prepared. The growth medium was washed from the cell plates and replaced with 20 μL of Assay Buffer. […] The reaction was stopped by the addition of 20 μL 0.1% Formic Acid to all wells. Sixty minutes later 30 μL 3 M deuterated AMP was added to all wells (as a control for volume addition to the mass spec). Plates were mixed on a plate shaker for 1 min and centrifugated (5 min 3000 RPMs no brakes).
Plates were run on a 4000 QTrap triple-quadrapole Mass spectrometer in positive ion mode coupled with a Biocius RapidFire 300is. […] Two ions (cAMP and deuterated AMP were measured using Multiple Reaction Monitoring (MRM) in positive ion mode and the area under the curve (AUC) was determined for each of the ions.
The data from the Mass Spec/Rapid Plate AUC for cAMP and deuterated AMP were imported to an Excel worksheet. A Normalized signal (NS) was generated for each well=(cAMP AUC for the well/deut AMP AUC for the well)*average deut AMP AUC for the plate). nM cAMP was calculated for each well from the cAMP standard curves located on each plate by first calculating the slope and deriving the intercept (b).
EC50 values were determined from a 4-point fit (Hill equation) of a single 11-point compound dosing.

Row | Compound | pEC50 [1] | pEC50 [2]
1 | COc1cc(C2CCCc3nc(SCc4c(F)cc(CC5SC(=O)NC5=O)cc4F)n(-c4ccc(F)cc4)c32)ccc1Cl (stereo not drawn) [Example 38, 5-(4-((7-(4-chloro-3-methoxyphenyl)-1-(4-fluorophenyl)-4,5,6,7-tetrahydro-1H-benzo[d]imidazol-2-ylthio)methyl)-3,5-difluorobenzyl)thiazolidine-2,4-dione trifluoroacetic acid] | < 4.30 | 5.90
2 | C/N=C(\N)NCCCc1cc(F)c(CSc2nc3c(n2-c2ccc(F)cc2)C(c2ccc(Cl)c(OC)c2)CCC3)c(F)c1 (stereo not drawn) [Example 39a, (E)-1-[3-[4-([[7-(4-chloro-3-methoxyphenyl)-1-(4-fluorophenyl)-4,5,6,7-tetrahydro-1H-1,3-benzodiazol-2-yl]sulfanyl]methyl)-3,5-difluorophenyl]propyl]-2-methylguanidine hydrochloride] | < 4.30 | 6.44
3 | COc1cc(C2CCCc3nc(SCc4c(F)cc(CCCN(C)C)cc4F)n(-c4ccc(F)cc4)c32)ccc1Cl (stereo not drawn) [Example 39b, 3-(4-((7-(4-chloro-3-methoxyphenyl)-1-(4-fluorophenyl)-4,5,6,7-tetrahydro-1H-benzo[d]imidazol-2-ylthio)methyl)-3,5-difluorophenyl)-N,N-dimethylpropan-1-amine trifluoroacetic acid] | < 4.30 | 4.79
4 | CCOC(=O)CCc1cc(F)c(CSc2nc3c(n2-c2ccc(F)cc2)C(c2ccc(Cl)c(OC)c2)CCC3)c(F)c1 (stereo not drawn) [Example 40, Ethyl 3-(4-((7-(4-chloro-3-methoxyphenyl)-1-(4-fluorophenyl)-4,5,6,7-tetrahydro-1H-benzo[d]imidazol-2-ylthio)methyl)-3,5-difluorophenyl)propanoate trifluoroacetic acid] | < 4.30 | 5.87
5 | COc1cc(C2CCCc3nc(SCc4c(F)cc(CCCO)cc4F)n(-c4ccc(F)cc4)c32)ccc1Cl (stereo not drawn) [Example 41, 3-(4-((7-(4-chloro-3-methoxyphenyl)-1-(4-fluorophenyl)-4,5,6,7-tetrahydro-1H-benzo[d]imidazol-2-ylthio)methyl)-3,5-difluorophenyl)propan-1-ol trifluoroacetic acid] | < 4.30 | 6.05
6 | COc1cc(C2CCCc3nc(SCc4c(F)cc(CCCNC(=N)N)cc4F)n(-c4ccc(F)cc4)c32)ccc1Cl (stereo not drawn) [Example 42, 1-(3-(4-((7-(4-chloro-3-methoxyphenyl)-1-(4-fluorophenyl)-4,5,6,7-tetrahydro-1H-benzo[d]imidazol-2-ylthio)methyl)-3,5-difluorophenyl)propyl)guanidine trifluoroacetic acid] | < 4.30 | 6.28
7 | COc1cc(C2CCCc3nc(SCc4c(F)cc(CCCN/C(N)=N/C#N)cc4F)n(-c4ccc(F)cc4)c32)ccc1Cl (stereo not drawn) [Example 43, (E)-1-(3-(4-((7-(4-chloro-3-methoxyphenyl)-1-(4-fluorophenyl)-4,5,6,7-tetrahydro-1H-benzo[d]imidazol-2-ylthio)methyl)-3,5-difluorophenyl)propyl)-2-cyanoguanidine hydrochloride] | < 4.30 | 6.17
8 | COc1cc(C2CCCc3nc(SCc4c(F)cc(CCC(=O)O)cc4F)n(-c4ccc(F)cc4)c32)ccc1Cl (stereo not drawn) [Example 44, 3-(4-((7-(4-chloro-3-methoxyphenyl)-1-(4-fluorophenyl)-4,5,6,7-tetrahydro-1H-benzo[d]imidazol-2-ylthio)methyl)-3,5-difluorophenyl)propanoic acid trifluoroacetic acid] | < 4.30 | 5.86
9 | COc1cc(C2CCCc3nc(SCc4c(F)cc(CCC(N)=O)cc4F)n(-c4ccc(F)cc4)c32)ccc1Cl (stereo not drawn) [Example 45, 3-(4-((7-(4-chloro-3-methoxyphenyl)-1-(4-fluorophenyl)-4,5,6,7-tetrahydro-1H-benzo[d]imidazol-2-ylthio)methyl)-3,5-difluorophenyl)propanamide trifluoroacetic acid] | < 4.30 | 6.46
10 | COc1cc(C2CCCc3nc(SCc4c(F)cc(CCC#N)cc4F)n(-c4ccc(F)cc4)c32)ccc1Cl (stereo not drawn) [Example 46, 3-(4-((7-(4-chloro-3-methoxyphenyl)-1-(4-fluorophenyl)-4,5,6,7-tetrahydro-1H-benzo[d]imidazol-2-ylthio)methyl)-3,5-difluorophenyl)propanenitrile trifluoroacetic acid] | < 4.30 | 6.85
11 | COc1cc(C2CCCc3nc(SCc4c(F)cc(CC/C=N/NC(=N)N)cc4F)n(-c4ccc(F)cc4)c32)ccc1Cl (stereo not drawn) [Example 47, (E)-2-(3-(4-((7-(4-chloro-3-methoxyphenyl)-1-(4-fluorophenyl)-4,5,6,7-tetrahydro-1H-benzo[d]imidazol-2-ylthio)methyl)-3,5-difluorophenyl)propylidene) hydrazinecarboximidamide hydrochloride] | 4.33 | 6.43
12 | C/N=C(\N)N/N=C/CCc1cc(F)c(CSc2nc3c(n2-c2ccc(F)cc2)C(c2ccc(Cl)c(OC)c2)CCC3)c(F)c1 (stereo not drawn) [Example 48, (1E,2E)-2-(3-(4-((7-(4-chloro-3-methoxyphenyl)-1-(4-fluorophenyl)-4,5,6,7-tetrahydro-1H-benzo[d]imidazol-2-ylthio)methyl)-3,5-difluorophenyl)propylidene)-N′-methylhydrazinecarboximidamide hydrochloride] | < 4.30 | 6.46

More lines, now with the values ahead:

Row | pEC50 [1] | pEC50 [2] | Compound
13 | < 4.30 | 6.03 | COc1cc(C2CCCc3nc(SCc4c(F)cc(CCc5nnn[nH]5)cc4F)n(-c4ccc(F)cc4)c32)ccc1Cl (stereo not drawn) [Example 49, 2-(4-(2-(1H-tetrazol-5-yl)ethyl)-2,6-difluorobenzylthio)-7-(4-chloro-3-methoxyphenyl)-1-(4-fluorophenyl)-4,5,6,7-tetrahydro-1H-benzo[d]imidazole trifluoroacetic acid]
14 | 4.46 | 6.55 | COc1cc(C2CCCc3nc(SCc4c(F)cncc4F)n(-c4ccc(F)cc4)c32)ccc1Cl (stereo not drawn) [Example 50, 7-(4-chloro-3-methoxyphenyl)-2-((3,5-difluoropyridin-4-yl)methylthio)-1-(4-fluorophenyl)-4,5,6,7-tetrahydro-1H-benzo[d]imidazole trifluoroacetic acid]
15 | < 4.30 | 5.26 | COc1cc(C2CCCc3nc(SCc4ccncc4F)n(-c4ccc(F)cc4)c32)ccc1Cl (stereo not drawn) [Example 51, 2-((3-fluoropyridin-4-yl)methylthio)-7-(4-chloro-3-methoxyphenyl)-1-(4-fluorophenyl)-4,5,6,7-tetrahydro-1H-benzo[d]imidazole trifluoroacetic acid]
16 | < 4.30 | 6.35 | COc1cc(C2CCCc3nc(SCc4ncccc4F)n(-c4ccc(F)cc4)c32)ccc1Cl (stereo not drawn) [Example 52, 2-((3-fluoropyridin-2-yl)methylthio)-7-(4-chloro-3-methoxyphenyl)-1-(4-fluorophenyl)-4,5,6,7-tetrahydro-1H-benzo[d]imidazole trifluoroacetic acid]
17 | < 4.30 | 5.36 | COc1cc(C2CCCc3nc(SCc4c(Cl)cncc4Cl)n(-c4ccc(F)cc4)c32)ccc1Cl (stereo not drawn) [Example 54]
18 | < 4.30 | 6.74 | COc1cc(C2CCCc3nc(SCc4c(F)cncc4Cl)n(-c4ccc(F)cc4)c32)ccc1Cl (stereo not drawn) [Example 55, 7-(4-chloro-3-methoxyphenyl)-2-[[(3-chloro-5-fluoropyridin-4-yl)methyl]sulfanyl]-1-(4-fluorophenyl)-4,5,6,7-tetrahydro-1H-1,3-benzodiazole bis(trifluoroacetic acid)]
